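Following 48 hours of exposure in 96-well plates, responses at five concentrations were used to interpolate endpoints linearly. GI50 is the concentration that inhibits growth by half.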 The source made the active and inactive calls. Rule as the data show it: active = GI50 up to about 1.1 µM and inactive = higher.
How the values were obtained:
Experiment in all cases: NCI tumour cell line growth inhibition, 48 h
ACHN = tested on: ACHN
CAKI-1 = tested on: CAKI-1
HL-60 = tested on: HL-60
HOP-92 = tested on: HOP-92
HT-29 = tested on: HT-29
K562 = tested on: K562
KM12 = tested on: KM12
M14 = tested on: M14
NCI-H23 = tested on: NCI-H23
NCI-H460 = tested on: NCI-H460
OVCAR-3 = tested on: OVCAR-3
OVCAR-4 = tested on: OVCAR-4
OVCAR-8 = tested on: OVCAR-8
SF-295 = tested on: SF-295
SF-539 = tested on: SF-539
SK-MEL-5 = tested on: SK-MEL-5
SN12C = tested on: SN12C
SNB-19 = tested on: SNB-19
UACC-257 = tested on: UACC-257
UACC-62 = tested on: UACC-62

Question: `O=S(=O)(N/C(=N\O)Nc1ccc(Cl)cc1)c1ccccc1` was tested. Which GI50 (ACHN) did it give?
Answer: Its GI50 is 12.2 µM (inactive).

Question: What about the GI50 (CAKI-1) of the same compound?
Answer: The GI50 was 2.07 µM (inactive).

Question: And the GI50 (HL-60)?
Answer: Its GI50 is 4.99 µM (inactive).

Question: And the GI50 (HOP-92)?
Answer: The GI50 was 2.94 µM (inactive).

Question: What about the GI50 (HT-29) of the same compound?
Answer: The GI50 was 16.1 µM (inactive).

Question: What about the GI50 (K562) of the same compound?
Answer: The GI50 was 6.64 µM (inactive).

Question: And the GI50 (KM12)?
Answer: The GI50 was 24.2 µM (inactive).

Question: What about the GI50 (M14) of the same compound?
Answer: The GI50 was 12.7 µM (inactive).

Question: And the GI50 (NCI-H23)?
Answer: The GI50 was 16.2 µM (inactive).

Question: And the GI50 (NCI-H460)?
Answer: Its GI50 is 13.4 µM (inactive).

Question: And the GI50 (OVCAR-3)?
Answer: The GI50 was 1.23 µM (inactive).

Question: What about the GI50 (OVCAR-4) of the same compound?
Answer: The GI50 was 2.33 µM (inactive).

Question: What about the GI50 (OVCAR-8) of the same compound?
Answer: The GI50 was 10.2 µM (inactive).

Question: What about the GI50 (SF-295) of the same compound?
Answer: Its GI50 is 36.6 µM (inactive).

Question: And the GI50 (SF-539)?
Answer: The GI50 was 4.22 µM (inactive).

Question: What about the GI50 (SK-MEL-5) of the same compound?
Answer: Its GI50 is 9.04 µM (inactive).

Question: And the GI50 (SN12C)?
Answer: Its GI50 is 11.7 µM (inactive).

Question: What about the GI50 (SNB-19) of the same compound?
Answer: The GI50 was 22.8 µM (inactive).

Question: And the GI50 (UACC-257)?
Answer: The GI50 was 10.5 µM (inactive).

Question: What about the GI50 (UACC-62) of the same compound?
Answer: Its GI50 is 14.6 µM (inactive).

Question: For `COc1cc2c3c(c4ccc(O)cc4c2cc1OC)[C@@H](O)[C@@H]1CCCN1C3`, which GI50 (ACHN) is on record?
Answer: Its GI50 is < 0.001 µM (active).

Question: And the GI50 (CAKI-1)?
Answer: The GI50 was < 0.001 µM (active).

Question: And the GI50 (HL-60)?
Answer: The GI50 was 0.00116 µM (active).

Question: What about the GI50 (HOP-92) of the same compound?
Answer: The GI50 was 0.0011 µM (active).

Question: What about the GI50 (HT-29) of the same compound?
Answer: The GI50 was 0.00233 µM (active).

Question: And the GI50 (K562)?
Answer: Its GI50 is 0.00203 µM (active).

Question: And the GI50 (KM12)?
Answer: The GI50 was < 0.001 µM (active).

Question: And the GI50 (M14)?
Answer: Its GI50 is < 0.001 µM (active).

Question: What about the GI50 (NCI-H23) of the same compound?
Answer: Its GI50 is 0.0012 µM (active).

Question: What about the GI50 (NCI-H460) of the same compound?
Answer: Its GI50 is < 0.001 µM (active).

Question: What about the GI50 (OVCAR-3) of the same compound?
Answer: The GI50 was 0.00122 µM (active).

Question: What about the GI50 (OVCAR-4) of the same compound?
Answer: Its GI50 is < 0.001 µM (active).

Question: What about the GI50 (OVCAR-8) of the same compound?
Answer: The GI50 was < 0.001 µM (active).

Question: And the GI50 (SF-295)?
Answer: Its GI50 is < 0.001 µM (active).

Question: And the GI50 (SF-539)?
Answer: Its GI50 is < 0.001 µM (active).

Question: What about the GI50 (SK-MEL-5) of the same compound?
Answer: The GI50 was < 0.001 µM (active).

Question: What about the GI50 (SN12C) of the same compound?
Answer: The GI50 was < 0.001 µM (active).

Question: What about the GI50 (SNB-19) of the same compound?
Answer: The GI50 was < 0.001 µM (active).

Question: What about the GI50 (UACC-257) of the same compound?
Answer: The GI50 was 0.00121 µM (active).

Question: And the GI50 (UACC-62)?
Answer: Its GI50 is 0.00105 µM (active).

Question: Which results are given for `C[C@H]1C(=O)O[C@@H]2CCN3CC=C(COC(=O)[C@](C)(O)[C@@]1(C)O)[C@H]23`?
Answer: GI50 (ACHN): > 100 µM (inactive); GI50 (CAKI-1): > 100 µM (inactive); GI50 (HL-60): > 100 µM (inactive); GI50 (HOP-92): > 100 µM (inactive); GI50 (HT-29): > 100 µM (inactive); GI50 (K562): > 100 µM (inactive); GI50 (KM12): > 100 µM (inactive); GI50 (M14): > 100 µM (inactive); GI50 (NCI-H23): > 100 µM (inactive); GI50 (NCI-H460): > 10 µM (inactive); GI50 (OVCAR-3): > 100 µM (inactive); GI50 (OVCAR-4): > 100 µM (inactive); GI50 (OVCAR-8): > 100 µM (inactive); GI50 (SF-295): > 100 µM (inactive); GI50 (SF-539): > 100 µM (inactive); GI50 (SK-MEL-5): > 100 µM (inactive); GI50 (SN12C): > 100 µM (inactive); GI50 (SNB-19): > 100 µM (inactive); GI50 (UACC-257): > 100 µM (inactive); GI50 (UACC-62): > 100 µM (inactive)

Question: Which GI50 (ACHN) does the source give for `CCCCCNC(=O)c1c(O)[nH]c(=S)[nH]c1=O` here?
Answer: Its GI50 is > 100 µM (inactive).

Question: And the GI50 (CAKI-1)?
Answer: The GI50 was > 100 µM (inactive).

Question: And the GI50 (HL-60)?
Answer: Its GI50 is > 100 µM (inactive).

Question: What about the GI50 (HOP-92) of the same compound?
Answer: Its GI50 is > 100 µM (inactive).

Question: What about the GI50 (HT-29) of the same compound?
Answer: The GI50 was > 100 µM (inactive).

Question: And the GI50 (K562)?
Answer: The GI50 was > 100 µM (inactive).

Question: And the GI50 (KM12)?
Answer: The GI50 was > 100 µM (inactive).

Question: And the GI50 (M14)?
Answer: The GI50 was > 100 µM (inactive).

Question: And the GI50 (NCI-H23)?
Answer: The GI50 was > 100 µM (inactive).

Question: And the GI50 (NCI-H460)?
Answer: The GI50 was > 100 µM (inactive).

Question: And the GI50 (OVCAR-3)?
Answer: The GI50 was > 100 µM (inactive).

Question: What about the GI50 (OVCAR-4) of the same compound?
Answer: The GI50 was 41.6 µM (inactive).

Question: What about the GI50 (OVCAR-8) of the same compound?
Answer: Its GI50 is 94.4 µM (inactive).

Question: And the GI50 (SF-295)?
Answer: Its GI50 is 78.2 µM (inactive).

Question: What about the GI50 (SF-539) of the same compound?
Answer: The GI50 was > 100 µM (inactive).

Question: What about the GI50 (SK-MEL-5) of the same compound?
Answer: The GI50 was > 100 µM (inactive).

Question: What about the GI50 (SN12C) of the same compound?
Answer: The GI50 was > 100 µM (inactive).

Question: What about the GI50 (SNB-19) of the same compound?
Answer: Its GI50 is > 100 µM (inactive).

Question: And the GI50 (UACC-257)?
Answer: Its GI50 is > 100 µM (inactive).

Question: What about the GI50 (UACC-62) of the same compound?
Answer: The GI50 was > 100 µM (inactive).

Question: With `CC(=O)C(/N=N\C1CCC(S(=O)(=O)NB2N=CS2)CC1)C(=O)Nc1ccccc1C` (centres undefined) as the compound, how does the GI50 (ACHN) read?
Answer: Its GI50 is 12.2 µM (inactive).

Question: And the GI50 (CAKI-1)?
Answer: Its GI50 is 23.1 µM (inactive).

Question: And the GI50 (HL-60)?
Answer: Its GI50 is > 100 µM (inactive).

Question: And the GI50 (HOP-92)?
Answer: The GI50 was 19.2 µM (inactive).

Question: What about the GI50 (HT-29) of the same compound?
Answer: The GI50 was 16 µM (inactive).

Question: And the GI50 (K562)?
Answer: Its GI50 is > 100 µM (inactive).

Question: And the GI50 (KM12)?
Answer: The GI50 was 16 µM (inactive).

Question: And the GI50 (M14)?
Answer: The GI50 was 19.2 µM (inactive).

Question: And the GI50 (NCI-H23)?
Answer: Its GI50 is 13.6 µM (inactive).

Question: And the GI50 (NCI-H460)?
Answer: The GI50 was 15.8 µM (inactive).

Question: What about the GI50 (OVCAR-3) of the same compound?
Answer: Its GI50 is 13.8 µM (inactive).

Question: What about the GI50 (OVCAR-4) of the same compound?
Answer: The GI50 was 12.8 µM (inactive).

Question: And the GI50 (OVCAR-8)?
Answer: Its GI50 is 10.5 µM (inactive).

Question: And the GI50 (SF-295)?
Answer: The GI50 was 17 µM (inactive).

Question: What about the GI50 (SF-539) of the same compound?
Answer: The GI50 was 17.7 µM (inactive).

Question: And the GI50 (SK-MEL-5)?
Answer: Its GI50 is 12.6 µM (inactive).

Question: And the GI50 (SN12C)?
Answer: Its GI50 is 17.4 µM (inactive).

Question: And the GI50 (SNB-19)?
Answer: Its GI50 is 16.5 µM (inactive).

Question: And the GI50 (UACC-257)?
Answer: The GI50 was 17.9 µM (inactive).

Question: And the GI50 (UACC-62)?
Answer: Its GI50 is 17.9 µM (inactive).

Question: How did the GI50 (ACHN) turn out when `CN1CC(c2ccccc2)N(CCCCN2CC(c3ccccc3)N(C)CC2c2ccccc2)CC1c1ccccc1` (centres undefined) was run?
Answer: Its GI50 is > 100 µM (inactive).

Question: And the GI50 (CAKI-1)?
Answer: The GI50 was > 100 µM (inactive).

Question: And the GI50 (HL-60)?
Answer: The GI50 was 29.3 µM (inactive).

Question: And the GI50 (HOP-92)?
Answer: The GI50 was 26.8 µM (inactive).

Question: What about the GI50 (HT-29) of the same compound?
Answer: The GI50 was 24.4 µM (inactive).

Question: And the GI50 (K562)?
Answer: The GI50 was 19.3 µM (inactive).

Question: What about the GI50 (KM12) of the same compound?
Answer: Its GI50 is 50.5 µM (inactive).

Question: And the GI50 (M14)?
Answer: Its GI50 is 25.9 µM (inactive).

Question: And the GI50 (NCI-H460)?
Answer: The GI50 was 18.1 µM (inactive).

Question: And the GI50 (OVCAR-3)?
Answer: Its GI50 is 53.3 µM (inactive).

Question: And the GI50 (OVCAR-4)?
Answer: Its GI50 is 37.7 µM (inactive).

Question: And the GI50 (OVCAR-8)?
Answer: The GI50 was 44.3 µM (inactive).

Question: What about the GI50 (SF-295) of the same compound?
Answer: The GI50 was 34.8 µM (inactive).

Question: And the GI50 (SF-539)?
Answer: Its GI50 is 52.7 µM (inactive).

Question: And the GI50 (SK-MEL-5)?
Answer: Its GI50 is 31.7 µM (inactive).

Question: And the GI50 (SN12C)?
Answer: The GI50 was 46.5 µM (inactive).

Question: And the GI50 (SNB-19)?
Answer: The GI50 was 54.7 µM (inactive).

Question: What about the GI50 (UACC-257) of the same compound?
Answer: Its GI50 is 13.5 µM (inactive).

Question: And the GI50 (UACC-62)?
Answer: The GI50 was 30.7 µM (inactive).

From ChEMBL document CHEMBL1201862, “PubChem BioAssay data set” (2004)
